The values that follow come from patent US12570675B2, “Boronic acid compounds” (LG CHEM, LTD., priority 2020, dated 2026).

By IC50 is commonly meant the midpoint of a concentration-inhibition curve.

For the experiment, the target named is Proteasome chymotrypsin-like activity (S26 protein from RPMI8226 cells) (Homo sapiens, UniProt P28074). Format: biochemical. As to conditions: S26 protein from RPMI8226 cell extract 2 ug/well, substrate 20 uM, 37° C., 90 minutes; read-out: Proteasome chymotrypsin-like activity inhibition IC50. The method, boiled down: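 Fluorogenic AMC substrates (20 uM final) report chymotrypsin-like (Suc-Leu-Leu-Val-Tyr-AMC) or caspase-like (Z-Leu-Leu-Glu-AMC) cleavage by RPMI8226-derived S26 protein, 2 ug/well, pH 8.0 Tris lysate.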
Sequence of Proteasome chymotrypsin-like activity (S26 protein from RPMI8226 cells) (P28074 60-263 limits assumed): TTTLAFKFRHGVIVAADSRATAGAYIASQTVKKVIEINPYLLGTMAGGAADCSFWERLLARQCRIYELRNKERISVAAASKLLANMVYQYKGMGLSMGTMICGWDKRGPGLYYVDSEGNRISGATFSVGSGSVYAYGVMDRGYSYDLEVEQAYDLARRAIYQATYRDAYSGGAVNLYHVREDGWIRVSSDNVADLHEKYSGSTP
As to `CC(C)C[C@H](NC(=O)C1(Cc2ccc(Cl)cc2)CC(CNC(=O)c2nccc3ccccc23)=NO1)B(O)O` (stereo partly drawn) [Example 101, ((1R)-1-(5-(4-chlorobenzyl)-3-((isoquinolin-1-carboxamido)methyl)-4,5-dihydroisoxazol-5-carboxamido)-3-methylbutyl)boronic acid], the IC50 was less than 10 nM.

Take `CC(C)C[C@H](NC(=O)C1(Cc2ccccc2)CC(CNS(=O)(=O)c2cccc3cccnc23)=NO1)B(O)O` (stereo partly drawn) [Example 144, ((1R)-1-(5-benzyl-3-((quinolin-8-sulfonamido)methyl)-4,5-dihydroisoxazol-5-carboxamido)-3-methylbutyl)boronic acid]: the IC50 was less than 10 nM.

As to `CC(C)C[C@H](NC(=O)C1(C(C)C)CC(CNC(=O)c2cc(Cl)ccc2Cl)=NO1)B(O)O` (stereo partly drawn) [Example 89, ((1R)-1-(3-((2,5-dichlorobenzamido)methyl)-5-isopropyl-4,5-dihydroisoxazol-5-carboxamido)-3-methylbutyl)boronic acid], the IC50 was less than 100 nM.

On to `CC(C)C[C@H](NC(=O)C1CC(c2ccc(-c3ccccc3)nc2)=NO1)B(O)O` (stereo partly drawn) [Example 32, ((1R)-3-methyl-1-(3-(6-phenylpyridin-3-yl)-4,5-dihydroisoxazol-5-carboxamido)butyl)boronic acid], for which the IC50 was less than 100 nM.

For the compound `CC(C)C[C@H](NC(=O)C1(Cc2ccccc2)CC(CNC(=O)c2cn(C)c3ccccc23)=NO1)B(O)O` (stereo partly drawn) [Example 208, ((1R)-1-(5-benzyl-3-((1-methyl-1H-indol-3-carboxamido)methyl)-4,5-dihydroisoxazol-5-carboxamido)-3-methylbutyl)boronic acid], the IC50 was less than 10 nM.

As to `Cc1nc(C)c(C(=O)NCC2=NOC(Cc3cccc(Cl)c3)(C(=O)N[C@@H](CC(C)C)B(O)O)C2)s1` (stereo partly drawn) [Example 219, ((1R)-1-(5-(3-chlorobenzyl)-3-((2,4-dimethylthiazol-5-carboxamido)methyl)-4,5-dihydroisoxazol-5-carboxamido)-3-methylbutyl)boronic acid], the IC50 was less than 10 nM.

For the compound `Cc1nc2c(C(=O)NCC3=NOC(Cc4ccccc4)(C(=O)N[C@@H](CC(C)C)B(O)O)C3)cccn2c1Cl` (stereo partly drawn) [Example 140, ((1R)-1-(5-benzyl-3-((3-chloro-2-methylimidazo[1,2-a]pyridin-8-carboxamido)methyl)-4,5-dihydroisoxazol-5-carboxamido)-3-methylbutyl)boronic acid], the IC50 was less than 10 nM.

For `CC(C)C[C@H](NC(=O)C1CC(c2ccc(OC(F)(F)F)cc2)=NO1)B(O)O` (stereo partly drawn) [Example 38, ((1R)-3-methyl-1-(3-(4-(trifluoromethoxy)phenyl)-4,5-dihydroisoxazol-5-carboxamido)butyl)boronic acid], the IC50 is less than 500 nM.

Turning to `CC(C)[C@H](NC(=O)C1(Cc2ccccc2)CC(CNC(=O)c2cccc(Cl)n2)=NO1)B(O)O` (stereo partly drawn) [Example 319, ((1R)-1-(5-benzyl-3-((6-chloropicolinamido)methyl)-4,5-dihydroisoxazol-5-carboxamido)-2-methylpropyl)boronic acid], the IC50 was less than 10 nM.

As for `CC(C)C[C@H](NC(=O)C1(Cc2ccccc2)CC(CNC(=O)c2cccc(N(C)C)c2)=NO1)B(O)O` (some centres unmarked) [Example 321], the IC50 was less than 10 nM.

For the compound `O=C(NCC1=NOC(Cc2ccccc2)(C(=O)N[C@@H](Cc2ccccc2)B(O)O)C1)c1cccc2ncnn12` (stereo partly drawn) [Example 313, ((1R)-1-(3-(([1,2,4]triazolo[1,5-a]pyridin-5-carboxamido)methyl)-5-benzyl-4,5-dihydroisoxazol-5-carboxamido)-2-phenylethyl)boronic acid], the IC50 was less than 10 nM.

Turning to `CC(C)C[C@H](NC(=O)C1CC(c2cccc(OCc3ccccn3)c2)=NO1)B(O)O` (stereo partly drawn) [Example 43, ((1R)-3-methyl-1-(3-(3-(pyridin-2-ylmethoxy)phenyl)-4,5-dihydroisoxazol-5-carboxamido)butyl)boronic acid], the IC50 is less than 250 nM.

In the case of `CC(C)C[C@H](NC(=O)C1CC(CCc2ccccc2)=NO1)B(O)O` (stereo partly drawn) [Example 11, ((1R)-3-methyl-1-(3-penetyl-4,5-dihydroisoxazol-5-carboxamido)butyl)boronic acid], the IC50 was less than 250 nM.

On to `CC(C)C[C@H](NC(=O)C1(Cc2ccccc2)CC(CNC(=O)c2cccc3nccn23)=NO1)B(O)O` (some centres unmarked) [Example 301], for which the IC50 was less than 10 nM.

Turning to `Cc1cccc(COCC2=NOC(Cc3ccccc3)(C(=O)N[C@@H](CC(C)C)B(O)O)C2)c1` (some centres unmarked) [Example 270], the IC50 is less than 10 nM.

For the compound `CC(C)C[C@H](NC(=O)C1CC(CNC(=O)Cc2ccccc2)=NO1)B(O)O` (stereo partly drawn) [Example 79, ((1R)-3-methyl-1-(3-((2-phenylacetamido)methyl)-4,5-dihydroisoxazol-5-carboxamido)butyl)boronic acid], the IC50 was less than 100 nM.

Regarding `COC[C@H](NC(=O)c1cccc(C)n1)C1=NOC(Cc2ccccc2)(C(=O)N[C@@H](CC(C)C)B(O)O)C1` (stereo partly drawn) [Example 195, ((1R)-1-(5-benzyl-3-((R)-2-methoxy-1-(6-methylpicolinamido)ethyl)-4,5-dihydroisoxazol-5-carboxamido)-3-methylbutyl)boronic acid], the IC50 is less than 50 nM.

For `CC(C)C[C@H](NC(=O)C1(Cc2ccccc2)CC(COCc2ccccn2)=NO1)B(O)O` (some centres unmarked) [Example 268], the IC50 was less than 10 nM.

`CC(C)C[C@H](NC(=O)C1(Cc2ccccc2)CC(CNC(=O)c2cnn(C)c2)=NO1)B(O)O` (stereo partly drawn) [Example 220, ((1R)-1-(5-benzyl-3-((1-methyl-1H-pyrazol-4-carboxamido)methyl)-4,5-dihydroisoxazol-5-carboxamido)-3-methylbutyl)boronic acid]: the IC50 is less than 10 nM.

As to `CC(C)C[C@H](NC(=O)C1(Cc2ccccc2)CC(CNC(=O)c2ccc(OC(C)C)c(C#N)c2)=NO1)B(O)O` (stereo partly drawn) [Example 123, [(1R)-1-[[5-benzyl-3-[[(3-cyano-4-isopropoxy-benzoyl)amino]methyl]-4H-1,2-oxazol-5-carbonyl]amino]-3-methyl-butyl]boronic acid], the IC50 was less than 10 nM.

Regarding `Cc1cccc(CC2(C(=O)N[C@@H](CC(C)C)B(O)O)CC(CNC(=O)c3cc(C)nn3C3CCOCC3)=NO2)c1` (stereo partly drawn) [Example 251, ((1R)-3-methyl-1-(3-((3-methyl-1-(tetrahydro-2H-pyran-4-yl)-1H-pyrazol-5-carboxamido)methyl)-5-(3-methylbenzyl)-4,5-dihydroisoxazol-5-carboxamido)butyl)boronic acid], the IC50 is less than 10 nM.

As to `COc1cccc(C(=O)NCC2=NOC(Cc3ccccc3)(C(=O)N[C@@H](CC(C)C)B(O)O)C2)c1` (some centres unmarked) [Example 284], the IC50 was less than 10 nM.

For `CC(C)C[C@H](NC(=O)C1CC(C(=O)Nc2cccc3ccccc23)=NO1)B(O)O` (stereo partly drawn) [Example 76, ((1R)-3-methyl-1-(3-(naphthalen-1-ylcarbamoyl)-4,5-dihydroisoxazol-5-carboxamido)butyl)boronic acid], the IC50 is less than 50 nM.

With `CC(C)C[C@H](NC(=O)C1(Cc2ccccc2)CC(COc2ccc3ccccc3c2)=NO1)B(O)O` (some centres unmarked) [Example 262], the IC50 was less than 100 nM.

As for `CC(C)C[C@H](NC(=O)C1(Cc2ccccc2)CC(CNC(=O)c2cc(-c3ccccn3)nn2C(C)C)=NO1)B(O)O` (stereo partly drawn) [Example 221, ((1R)-1-(5-benzyl-3-((1-isopropyl-3-(pyridin-2-yl)-1H-pyrazol-5-carboxamido)methyl)-4,5-dihydroisoxazol-5-carboxamido)-3-methylbutyl)boronic acid], the IC50 was less than 10 nM.

For `COc1cccc(CC2(C(=O)N[C@@H](CC(C)C)B(O)O)CC(CNC(=O)c3cccn4ccnc34)=NO2)c1` (stereo partly drawn) [Example 135, ((1R)-1-(3-((imidazo[1,2-a]pyridin-8-carboxamido)methyl)-5-(3-methoxybenzyl)-4,5-dihydroisoxazol-5-carboxamido)-3-methylbutyl)boronic acid], the IC50 is less than 10 nM.

Take `CCC1(C(=O)N[C@@H](CC(C)C)B(O)O)CC(c2cnccn2)=NO1` (stereo partly drawn) [Example 6, ((1R)-1-(5-ethyl-3-(pyrazin-2-yl)-4,5-dihydroisoxazol-5-carboxamido)-3-methylbutyl)boronic acid]: the IC50 was more than 1000 nM.

Turning to `CC(C)C[C@H](NC(=O)C1(Cc2ccccc2)CC(CNC(=O)c2cnccn2)=NO1)B(O)O` (stereo partly drawn) [Example 106, ((1R)-1-(5-benzyl-3-((pyrazin-2-carboxamido)methyl)-4,5-dihydroisoxazol-5-carboxamido)-3-methylbutyl)boronic acid], the IC50 is less than 10 nM.

`Cc1cccc(CC2(C(=O)N[C@@H](CC(C)C)B(O)O)CC(CNC(=O)c3cc(C(C)(C)C)nn3C(C)C)=NO2)c1` (stereo partly drawn) [Example 237, ((1R)-1-(3-((3-(tert-butyl)-1-isopropyl-1H-pyrazol-5-carboxamido)methyl)-5-(3-methylbenzyl)-4,5-dihydroisoxazol-5-carboxamido)-3-methylbutyl)boronic acid]: the IC50 is less than 10 nM.

Consider `Cc1ncc(C(=O)NCC2=NOC(Cc3ccccc3)(C(=O)N[C@@H](CC(C)C)B(O)O)C2)s1` (stereo partly drawn) [Example 235, ((1R)-1-(5-benzyl-3-((2-methylthiazol-5-carboxamido)methyl)-4,5-dihydroisoxazol-5-carboxamido)-3-methylbutyl)boronic acid], for which the IC50 was less than 10 nM.

Consider `CC(C)C[C@H](NC(=O)C1(CC(C)C)CC(CNC(=O)c2cc(Cl)ccc2Cl)=NO1)B(O)O` (stereo partly drawn) [Example 90, ((1R)-1-(3-((2,5-dichlorobenzamido)methyl)-5-isobutyl-4,5-dihydroisoxazol-5-carboxamido)-3-methylbutyl)boronic acid], for which the IC50 was less than 25 nM.

Regarding `CC(C)C[C@H](NC(=O)C1(C(F)(F)c2ccccc2)CC(CNC(=O)c2nccc3ccccc23)=NO1)B(O)O` (stereo partly drawn) [Example 155, ((1R)-1-(5-(difluoro(phenyl)methyl)-3-((isoquinolin-1-carboxamido)methyl)-4,5-dihydroisoxazol-5-carboxamido)-3-methylbutyl)boronic acid], the IC50 is less than 25 nM.
